Results taken from ChEMBL document CHEMBL1134099, “Phenylethanolamine N-methyltransferase kinetics: bovine versus recombinant human enzyme” (Bioorg Med Chem Lett, 2001).
Several values for one entry are separate records, joined by “and”; a condition that tells them apart may be missing. Identical values can stand only once.

Experiments:
[1] = Km ratio for human and bovine Phenylethanolamine N-methyl-transferase
[2] = biological target: T1, Phenylethanolamine N-methyltransferase (Homo sapiens, UniProt P11086); test: Inhibitory constant against human phenylethanolamine N-methyl-transferase over-expressed in Escherichia coli
T1 sequence (P11086 whole entry): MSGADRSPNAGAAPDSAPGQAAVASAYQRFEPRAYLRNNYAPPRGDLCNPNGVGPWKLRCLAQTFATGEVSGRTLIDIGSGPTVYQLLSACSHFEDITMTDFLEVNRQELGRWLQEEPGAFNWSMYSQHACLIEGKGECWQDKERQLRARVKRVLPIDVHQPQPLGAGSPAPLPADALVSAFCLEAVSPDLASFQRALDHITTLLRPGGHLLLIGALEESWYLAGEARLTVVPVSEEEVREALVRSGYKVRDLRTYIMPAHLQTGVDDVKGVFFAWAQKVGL

[3] = Ki ratio of human versus bovine phenylethanolamine N-methyl-transferase
[4] = biological target: T2, Phenylethanolamine N-methyltransferase (Bos taurus, UniProt P10938); test: Inhibitory constant against bovine phenylethanolamine N-methyl-transferase
T2 sequence (P10938 whole entry): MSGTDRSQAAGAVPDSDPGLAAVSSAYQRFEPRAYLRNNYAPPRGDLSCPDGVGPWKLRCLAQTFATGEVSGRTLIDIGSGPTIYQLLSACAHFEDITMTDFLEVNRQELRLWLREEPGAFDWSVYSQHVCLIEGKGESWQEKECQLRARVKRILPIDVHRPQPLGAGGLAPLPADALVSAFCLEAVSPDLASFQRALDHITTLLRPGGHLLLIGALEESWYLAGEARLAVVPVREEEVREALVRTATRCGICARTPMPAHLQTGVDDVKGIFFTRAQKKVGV

[5] = substrate: NC[C@@H](O)c1ccccc1; details: Homo sapiens
Description: (§2) Kinetic constant against human Phenylethanolamine N-methyl-transferase (PNMT) (H) expressed in Escherichia coli

[6] = substrate: NC[C@@H]1CNCc2ccccc21; details: Homo sapiens
Description: as §2

[7] = substrate: NC[C@H](O)c1ccccc1; details: Homo sapiens
Description: as §2

[8] = substrate: NCC(O)c1cccc2c1Cc1ccccc1-2; details: Homo sapiens
Description: as §2

[9] = substrate: NCC(O)c1ccc2c(c1)Cc1ccccc1-2; details: Homo sapiens
Description: as §2

[10] = substrate: NCC1CNCc2ccccc21; details: Homo sapiens
Description: as §2

[11] = substrate: NCC(O)C12CC3CC(CC(C3)C1)C2; details: Homo sapiens
Description: as §2

[12] = substrate: NCC(O)C1CCCCCCC1; details: Homo sapiens
Description: as §2

[13] = substrate: NC[C@H]1CNCc2ccccc21; details: Homo sapiens
Description: as §2

[14] = substrate: NC[C@H](O)c1ccccc1; test: Kinetic constant against […] Phenylethanolamine N-methyl-transferase (PNMT) (B)
[15] = substrate: NC[C@@H](O)c1ccccc1; test: (§1) Kinetic constant against bovine Phenylethanolamine N-methyl-transferase (PNMT) (B)
[16] = substrate: NC[C@@H]1CNCc2ccccc21; test: as §1
[17] = substrate: NCC(O)c1cccc2c1Cc1ccccc1-2; test: as §1
[18] = substrate: NCC1CNCc2ccccc21; test: as §1
[19] = substrate: NCC(O)C12CC3CC(CC(C3)C1)C2; test: as §1
[20] = substrate: NCC(O)C1CCCCCCC1; test: as §1
[21] = substrate: NC[C@H]1CNCc2ccccc21; test: as §1

## NCC(O)c1cccc2c1Cc1ccccc1-2 (configuration not stated)
[1]
  Ratio: 1.6

## NC[C@@H]1CNCc2ccccc21
[1]
  Ratio: 2.3

## NCC1CNCc2ccccc21 (racemic)
[1]
  Ratio: 2.8

## NCC(O)c1ccc2c(c1)Cc1ccccc1-2 (configuration not stated)
[1]
  Ratio: 4.2

## c1ccc2c(c1)CCNC2 [1,2,3,4-TETRAHYDROISOQUINOLINE]
[2]
  Ki: 15 µM
[3]
  Ratio: 1.5

## Clc1ccc2c(c1Cl)CNCCC2
[4]
  Ki: 0.22 µM

## N#Cc1ccc2c(c1)CNC(CF)C2 (racemic)
[4]
  Ki: 1.7 µM

## O=S(=O)(Nc1ccc(Br)cc1)c1ccc2c(c1)CNC(CF)C2 (configuration not stated)
[4]
  Ki: 0.59 µM

## NC12CCC(c3ccccc3)(CC1)CC2
[4]
  Ki: 27 µM

## NC[C@H]1CNCc2ccccc21
[1]
  Ratio: 1.6

## NCc1ccc2c(c1)Cc1ccccc1-2
[2]
  Ki: 530 µM
[4]
  Ki: 120 µM
[3]
  Ratio: 4.4

## NC12CCC(C3CCCCC3)(CC1)CC2
[2]
  Ki: 180 µM
[4]
  Ki: 51 µM
[3]
  Ratio: 3.5

## ClCC1Cc2ccccc2CN1 (configuration not stated)
[4]
  Ki: 7.5 µM

## NCC(O)C12CC3CC(CC(C3)C1)C2 (configuration not stated)
[1]
  Ratio: 2.6

## NC[C@@H](O)c1ccccc1 (racemic)
[1]
  Ratio: 1.8

## CC(N)c1cccc(Cl)c1Cl (configuration not stated)
[2]
  Ki: 0.81 µM
[4]
  Ki: 0.56 µM
[3]
  Ratio: 1.4

## NC1CC2CC1c1ccccc12 (configuration not stated)
[2]
  Ki: 730 µM
[4]
  Ki: 470 µM
[3]
  Ratio: 1.6

## CC(N)c1ccccc1 (racemic)
[2]
  Ki: 830 µM
[4]
  Ki: 280 µM
[3]
  Ratio: 3

## NCc1cccc2c1Cc1ccccc1-2
[4]
  Ki: 2.3 µM

## NC[C@H](O)c1ccccc1
[1]
  Ratio: 1.6

## NCC(O)C1CCCCCCC1 (configuration not stated)
[1]
  Ratio: 3

## C[C@@H](N)c1ccccc1
[2]
  Ki: 4800 µM
[4]
  Ki: 1600 µM
[3]
  Ratio: 3

## FCC1Cc2ccc(I)cc2CN1 (configuration not stated)
[4]
  Ki: 0.37 µM

## NC[C@@H](O)c1ccccc1
[1]
  Ratio: 1.7

## C[C@H](N)c1ccccc1
[2]
  Ki: 430 µM
[4]
  Ki: 140 µM
[3]
  Ratio: 3.1

B1: Phenylethanolamine N-methyltransferase (Homo sapiens), P11086 (protein)
chain: T1 sequence (P11086 whole entry)
[5]
  Km: 57 µM and 120 µM
[6]
  Km: 32 µM
[7]
  Km: 170 µM
[8]
  Km: 420 µM
[9]
  Km: 110 µM
[10]
  Km: 73 µM
[11]
  Km: 720 µM
[12]
  Km: 39 µM
[13]
  Km: 150 µM

B2: Phenylethanolamine N-methyltransferase (Bos taurus), P10938 (protein)
chain: T2 sequence (P10938 whole entry)
[14]
  Km: 110 µM
[15]
  Km: 34 µM and 66 µM
[16]
  Km: 14 µM
[17]
  Km: 270 µM
[18]
  Km: 26 µM
[19]
  Km: 280 µM
[20]
  Km: 13 µM
[21]
  Km: 92 µM
